Read-outs that look alike come from different tables or passages of the source.
System: K. pneumoniae
Experiment: MIC of imipenem, ertapenem and meropenem
Assay type: cell-based, Klebsiella pneumoniae
Conditions: Klebsiella pneumoniae, read-out: MIC

## C[C@@H](O)[C@H]1C(=O)N2C(C(=O)O)=C(S[C@@H]3CN[C@H](C(=O)Nc4cccc(C(=O)O)c4)C3)[C@H](C)[C@H]12 [ETP, ertapenem]
K. pneumoniae 1 OMA (NDM-1 + CTX-M-15 + OXA-1 + OXA-9)
  MIC: > 32 µg/mL
K. pneumoniae 2 OLA (NDM-1 + OXA-1)
  MIC: 6 µg/mL
K. pneumoniae 7 AFR (NDM-1 + OXA-1 + CTX-M-15 + CMY-6 + TEM-1)
  MIC: > 32 µg/mL
K. pneumoniae 7AFR, NDM-1 + TEM-1 + CTX-M-15 + CMY-6 + OXA-1
  MIC: > 32 µg/mL
K. pneumoniae 0227, SHV-1, non-carbapenemase producer
  MIC: 0.008 µg/mL
K. pneumoniae 588, KPC-2 + TEM-1 + SHV-11 + OXA-9
  MIC: 32 µg/mL
K. pneumoniae 1022, SHV-2a + SHV-28, non-carbapenemase producer
  MIC: 0.016 µg/mL
K. pneumoniae 1025 (CTX-M-14 + TEM-1 + SHV-11)
  MIC: 0.016 µg/mL
K. pneumoniae 1025, CTX-M-14 + TEM-1 + SHV-11, non-carbapenemase producer
  MIC: 0.016 µg/mL
K. pneumoniae 2303, KPC-2 + SHV-11
  MIC: > 32 µg/mL
K. pneumoniae 6642 GEN (NDM-1 + CTX-M-15 + OXA-1 + OXA-10)
  MIC: 16 µg/mL
K. pneumoniae 6642 GEN, NDM-1 + CTX-M-15 + OXA-1 + OXA-10
  MIC: 16 µg/mL
K. pneumoniae 6759 GEN (NDM-1 + CTX-M-15 + OXA-1 + OXA-9 + OXA-10 + CMY16)
  MIC: > 32 µg/mL
K. pneumoniae 6759 GEN, NDM-1 + CTX-M-15 + CMY-16 + OXA-1 + OXA-9 + OXA-10
  MIC: > 32 µg/mL
K. pneumoniae 7725 (SHV-1)
  MIC: 0.006 µg/mL
K. pneumoniae 7725, SHV-1, non-carbapenemase producer
  MIC: 0.006 µg/mL
K. pneumoniae 10112, CTX-M-15 + TEM-1 + SHV-11, non-carbapenemase producer
  MIC: 0.016 µg/mL
K. pneumoniae 0404020, VIM-1+ SHV-5
  MIC: > 32 µg/mL
K. pneumoniae 0404024, VIM-1
  MIC: > 32 µg/mL
K. pneumoniae 0511135, VIM-1+ SHV-12
  MIC: > 32 µg/mL
K. pneumoniae 648236 (SHV-2a)
  MIC: 2 µg/mL
K. pneumoniae 648236, SHV-2a, non-carbapenemase producer, porin deficiency
  MIC: 2 µg/mL
K. pneumoniae 0709121, IMP-1
  MIC: 3 µg/mL
K. pneumoniae 0709124, IMP-1 + TEM-15
  MIC: 3 µg/mL
K. pneumoniae 0709125, IMP-1 + TEM-1 + SHV-12
  MIC: 4 µg/mL
K. pneumoniae 0709127, IMP-1 + TEM-1
  MIC: 4 µg/mL
K. pneumoniae A28006, KPC-2 + TEM-1 + CTX-M-2 + SHV-11
  MIC: 24 µg/mL
K. pneumoniae A33504, KPC-2 + TEM-1 + SHV-11 + CTX-M-2 + OXA-9
  MIC: > 32 µg/mL
K. pneumoniae AEL, OXA-48 + CTX-M-15 + SHV-28 + OXA-1
  MIC: 6 µg/mL
K. pneumoniae ALE (CTX-M-15 + SHV-1)
  MIC: > 32 µg/mL
K. pneumoniae ALE, CTX-M-15 + SHV-1, non-carbapenemase producer, porin deficiency
  MIC: > 32 µg/mL
K. pneumoniae AMS (OXA-48 + TEM-1 + CTX-M-15 + OXA-1)
  MIC: 2 µg/mL
K. pneumoniae AMS, OXA-48 + TEM-1 + CTX-M-15 + OXA-1
  MIC: 2 µg/mL
K. pneumoniae BAJ (OXA-48 + TEM-1 + CTX-M-15 + SHV-28)
  MIC: 1.5 µg/mL
K. pneumoniae BAJ, OXA-48 + TEM-1 + CTX-M-15 + SHV-28
  MIC: 1.5 µg/mL
K. pneumoniae BED (CTX-M-15 + TEM-1 + SHV-1; Table 8: SHV-11)
  MIC: > 32 µg/mL
K. pneumoniae BED, CTX-M-15 + TEM-1 + SHV-11, non-carbapenemase producer, porin deficiency
  MIC: > 32 µg/mL
K. pneumoniae BEL (OXA-48)
  MIC: 4 µg/mL
K. pneumoniae BEL, OXA-48
  MIC: 4 µg/mL
K. pneumoniae BEN (OXA-48 + TEM-1 + CTX-M-15 + SHV-28)
  MIC: 1 µg/mL
K. pneumoniae BEN, OXA-48 + TEM-1 + CTX-M-15 + SHV-28
  MIC: 1 µg/mL
K. pneumoniae BER (TEM-1 + SHV-28)
  MIC: 4 µg/mL
K. pneumoniae BER, SHV-28 + TEM-1, non-carbapenemase producer, porin deficiency
  MIC: 4 µg/mL
K. pneumoniae BEY (OXA-48 + CTX-M-15 + TEM-1)
  MIC: 0.38 µg/mL
K. pneumoniae BEY, OXA-48 + TEM-1 + CTX-M-15
  MIC: 0.38 µg/mL
K. pneumoniae BIC (OXA-48)
  MIC: 2 µg/mL
K. pneumoniae BIC, OXA-48
  MIC: 2 µg/mL
K. pneumoniae BOU, OXA-48
  MIC: 0.5 µg/mL
K. pneumoniae CHA (OXA-48 + TEM-1)
  MIC: 1 µg/mL
K. pneumoniae CHA, OXA-48 + TEM-1
  MIC: 1 µg/mL
K. pneumoniae COL (KPC-2 + TEM-1 + SHV-1 + CTX-M-15)
  MIC: 4 µg/mL
K. pneumoniae COO (CTX-M-15 + SHV28)
  MIC: > 32 µg/mL
K. pneumoniae COO, CTX-M-15 + SHV-28, non-carbapenemase producer, porin deficiency
  MIC: > 32 µg/mL
K. pneumoniae DAL (OXA-48 + CTX-M-15 + TEM-1)
  MIC: 2 µg/mL
K. pneumoniae DAL, OXA-48 + TEM-1 + CTX-M-15
  MIC: 2 µg/mL
K. pneumoniae DIA, OXA-48 + TEM-1b + CTX-M-15 + SHV-11 + OXA-1
  MIC: > 32 µg/mL
K. pneumoniae DUW, OXA-48 + TEM-1 + CTX-M-15 + SHV-28
  MIC: 32 µg/mL
K. pneumoniae EGY (OXA-48 + CTX-M-15)
  MIC: 3 µg/mL
K. pneumoniae EGY, OXA-48 + CTX-M-15
  MIC: 3 µg/mL
K. pneumoniae ELK (OXA-48 + TEM-1 + CTX-M-15 + SHV-11)
  MIC: 3 µg/mL
K. pneumoniae ELK, OXA-48 + TEM-1 + CTX-M-15 + SHV-11
  MIC: 3 µg/mL
K. pneumoniae ENN, VIM-1+ SHV-5
  MIC: 1.5 µg/mL
K. pneumoniae FOS (CTX-M-15 + TEM-1 + SHV-11)
  MIC: > 32 µg/mL
K. pneumoniae FOS, CTX-M-15 + TEM-1 + SHV-11, non-carbapenemase producer, porin deficiency
  MIC: > 32 µg/mL
K. pneumoniae GES, KPC-2 + TEM-1 + SHV-11
  MIC: 12 µg/mL
K. pneumoniae HOL (OXA-181 + CTX-M-15)
  MIC: 4 µg/mL
K. pneumoniae HOL, OXA-181 + CTX-M-15
  MIC: 4 µg/mL
K. pneumoniae HPA, OXA-48 + TEM-1 + CTX-M-15 + OXA-1
  MIC: > 32 µg/mL
K. pneumoniae IND (NDM-1 + OXA-1 + CTX-M-15)
  MIC: 8 µg/mL
K. pneumoniae KAM, KPC-3 + TEM-1 + SHV-11
  MIC: 12 µg/mL
K. pneumoniae KDH (DHA-2)
  MIC: 0.5 µg/mL
K. pneumoniae KI2, NDM-1 + CTX-M-15 + OXA-1
  MIC: 8 µg/mL
K. pneumoniae KIE, NDM-1 + SHV-38 + CMY-16 + OXA-10
  MIC: 2 µg/mL

— patent US9328374B2, “Selective culture medium and method for detecting carbapenem-resistant bacteria in a test sample” (Institut National de la Sante et de la Recherche Medicale …, priority 2011, dated 2016)
